Data from paper PMC6213633, “Induction of ATP Release, PPIX Transport, and Cholesterol Uptake by Human Red Blood Cells Using a New Family of TSPO Ligands” (International Journal of Molecular Sciences, 2018).
Read-outs that look alike come from different tables or passages of the source.

Legend:
[1] = Hemolysis induced by TSPO ligands (Hb release, absorption at 405 nm); format: cell-based; conditions: human, Hb released, mean ± SEM, N = 4, read-out: Hemolysis induced by TSPO ligands treatment
Procedure: Hemolysis leads to hemoglobin (Hb) release into the extracellular milieu, where the Hb content can be quantified by monitoring light absorption, at 405 nm. Using this procedure, we previously observed that the amount of Hb was proportional to the amount of lysed RBCs. The Hb content of the samples was determined as described above. Then, the amount of lytic ATP contributing to [ATPe] was estimated from the total amount of hemolysis cells (calculated as described above) and the intracellular ATP content of the RBCs, which under the experimental conditions was 148 pmol ATP per 10^6 RBCs, as previously reported by our group.

[2] = tested on: P. falciparum-infected RBCs; experiment: Sorbitol-induced hemolysis in infected RBCs; format: cell-based, human; conditions: 50 µM ligand
Procedure: Figure 4 Sorbitol-induced hemolysis is modulated by the TSPO ligands in infected red blood cells. Infected RBCs at 2 to 5 % parasitemia were washed three times in a culture medium, without serum, and resuspended at 50% hematocrit in a media containing 10 μM (A) or 50 μM (B) TSPO ligands. Hemolysis was quantified at several time-points, by absorption at 540 nm wavelength. Data are presented as mean ± SEM; N = 4. Differences between each ligand and control condition (vehicle) were considered significant when p < 0.01.
Sorbitol hemolysis assays were carried as previously described using hemoglobin release to estimate lysis time. Monoexponential functions were fitted to the data from the sorbitol-induced hemolysis (%) (Figure 4), at different times of exposure to the ligands. Half time values (t1/2) for hemolysis were then calculated as t1/2= ln (2)/k, where k is the rate coefficient of the exponential curve.

[3] = tested on: P. falciparum strain FCR3; experiment: P. falciparum growth inhibition (flow cytometry of parasitemia); format: cell-based, Plasmodium falciparum; conditions: 10 and 50 µM
Procedure: Figure 1 TSPO ligands inhibited the P. falciparum growth. Infected RBCs were diluted to 1% parasitemia, and maintained at 1–5%, by dilution, for […]. Percentages of growth-inhibition were obtained, after two parasite cycles, by the flow cytometry analysis of parasitemia, and normalized to the control condition (solvent-treated cells). Data are presented as the mean ± SEM; N = 4. Differences between the control condition and the treatment were considered significant at ** p < 0.01; *** p < 001.
P. falciparum strain FCR3 culture was performed in RPMI 1640 medium containing 10% Albumax, at 5% hematocrit, in a 5% O2, 3% CO2 atmosphere. […] Parasitemia was determined after 48 h and 96 h (after one or two complete parasite’s cycles, respectively) by flow cytometry (FACS), as previously described.
(§1) Fluorescence measurements in all samples of the P. falciparum’s viability, ZnPPIX uptake, cholesterol uptake, and ROS accumulation assays, were performed with a FACSCanto (BD Biosciences, Rungis, France) and further analyzed with Flowjo-3 software. […] ZnPPIX (Ex.: 488 nm, Em.: 585/42 nm), TopFluor Cholesterol (Ex.: 495 nm, Em.: 507 nm) and DCFDA (Ex.: 488 nm, Em.: 530/30 nm) levels were measured in both the infected and non-infected RBC populations, results were normalized to the corresponding solvent for each ligand.

[4] = tested on: healthy and P. falciparum-infected RBCs; experiment: TopFluor Cholesterol uptake by RBCs (flow cytometry); format: cell-based, human; conditions: 50 µM ligand; for effect on cholesterol uptake: healthy and infected RBCs
Procedure: Figure 5 Cholesterol uptake induced by TSPO ligands. Healthy (A) or infected red blood cells, at 2 to 5% parasitemia (B) were incubated in the presence of TopFluor Cholesterol and 50 µM of TSPO ligands. Cholesterol uptake was assessed at different time points by flow cytometry. MFI values were normalized to vehicle treated cells. Data are presented as mean ± SEM; N = 4. Differences between each ligand and control condition (vehicle) were considered significant when * p < 0.05.
Cholesterol uptake was measured using TopFluor Cholesterol and 50 µM of TSPO ligands. Cholesterol uptake was assessed at different time points by flow cytometry. Mean Fluorescent Intensity (MFI) values were normalized to vehicle treated cells.
Fluorescence measurements in all samples of the P. falciparum’s viability, ZnPPIX uptake, cholesterol uptake, and ROS accumulation assays, were performed with a FACSCanto (BD Biosciences, Rungis, France) and further analyzed with Flowjo-3 software. Infected-RBCs were distinguished from non-infected ones contained in the same culture by TOPRO-3 signaling (1/2, 500), with the negative level established with the same non-infected RBCs used for parasite culture. ZnPPIX (Ex.: 488 nm, Em.: 585/42 nm), TopFluor Cholesterol (Ex.: 495 nm, Em.: 507 nm) and DCFDA (Ex.: 488 nm, Em.: 530/30 nm) levels were measured in both the infected and non-infected RBC populations, results were normalized to the corresponding solvent for each ligand.

[5] = tested on: healthy and P. falciparum-infected RBCs; experiment: ZnPPIX uptake in healthy and infected RBCs (flow cytometry); format: cell-based, human; conditions: 20 µM ZnPPIX, 50 µM ligand
Procedure: Figure 2 ZnPPIX uptake in healthy and infected RBCs induced by TSPO ligands. Healthy RBC (A) and infected RBC (B) at 2 to 5% parasitemia were incubated in the presence of 20 µM ZnPPIX and 50 µM TSPO ligands, and the uptake of ZnPPIX was assessed at different time points by flow cytometry. MFI values were normalized to background levels for the control and the ligand-treated conditions. Data are presented as the mean ± SEM; N = 7. Statistical analyses were performed for each ligand and the control condition. Differences were considered significant when * p < 0.05; ** p < 0.01; *** p < 0.001.
P. falciparum cultures were incubated at 2–5% parasitemia (synchronized cultures, ring and trophozoite stages) in 200 µL of RPMI 10% Albumax containing 20 µM ZnPPIX. […] Cultures were kept at 37 °C, in the dark, for 3 to 18 h and further analyzed by FACS.
as §1

[6] = tested on: TSPO1-enriched rat heart microsomes; design: method as in doi:10.1002/slct.201701565; conditions: cited from earlier work
[7] = target: T1, TSPO2-expressing RBC membranes (Homo sapiens, UniProt Q5TGU0); experiment: (3H) PK 11195 displacement binding on RBCs; design: endogenous in cells; host or cells: human red blood cells purified from fresh blood of healthy volunteers
T1 sequence (Q5TGU0 1-170): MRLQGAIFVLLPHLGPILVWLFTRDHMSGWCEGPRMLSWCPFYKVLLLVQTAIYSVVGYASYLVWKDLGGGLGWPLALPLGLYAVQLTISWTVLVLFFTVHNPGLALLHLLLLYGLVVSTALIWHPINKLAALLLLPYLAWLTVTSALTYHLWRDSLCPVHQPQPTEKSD
Procedure: The affinity of the ligands for the RBC membranes was assessed by typical displacement experiments. RBCs were exposed to 10 nM (^3H) PK 11195 and increasing concentrations of non-radiolabeled TSPO ligands.
RBCs were washed twice in phosphate buffer saline (PBS) (pH 7.4). Samples were incubated in a final incubation volume of 0.3 mL, in the presence of (^3H) PK 11195 (Perkin Elmer, Courtaboeuf, France; 83.5 Ci/mmol) and increasing concentrations of unlabeled TSPO ligands, at room temperature (RT). After 30 min incubation, assays were stopped by filtration through Whatman GF/C filters. Radioactivity trapped on the filters was determined by liquid scintillation counting (Tri-Carb 2800TR, Perkin-Elmer, Courtaboeuf, France).

[8] = tested on: human red blood cells; experiment: ATP release from RBCs (luciferase luminometry); format: cell-based; conditions: for induction of ATP release (comparison between ligands): 10 or 30 µM ligand, 37 °C, 10% hematocrit; for ligand-induced ATP release in presence of VDAC blocker Bcl-XLBH4: Bcl-XLBH4 10 µM; for ligand-induced ATP release in presence of pannexin-1 inhibitors: carbonexolone 10 µM or probenecid 10 µM
Procedure: Figure 6 TSPO ligand-induced ATP release. ATP release from human red blood cells was measured at 37 °C, 10% Hematocrit, as described in material and methods. Values are the ratio between extracellular ATP (ATPe) levels after and before the addition of TSPO ligands. […] Results are expressed as means ± SEM and considered different from basal (vehicle, unstimulated) values when * p < 0.05; ** p < 0.01 or from those incubated in the presence of Bcl-XLBH4 when ^# p < 0.05 and ^## p < 0.01; N = 7.
Extracellular ATP (ATPe) concentration was measured by quantitative luminometry using firefly luciferase, which catalyzes the oxidation of luciferin in the presence of ATP to produce light as previously described. The ATPe concentration was determined at discrete times (offline). Changes in [ATPe] over time were used to estimate ATP release from RBCs.
10 µL of RBCs at 10% hematocrit were incubated for 10 min, at 37 °C, in the presence of the ligand, or of an equal vehicle volume, with 30 µL of MKB medium. At discrete times, samples were centrifuged at 450× g for 3 min, at RT. Paired samples were taken to assess ATPe and hemolysis. The supernatants were stored at −20 °C, prior to the analysis. Then, 4.5 µL of the supernatant samples were added to 45 µL of the luminometry mix (MKB medium containing 0.01 µM luciferase, 0.2 mM luciferin, and 0.1 mg/mL of Coenzyme A) and placed in the assay chamber of the luminometer to determine the light intensity. At the end of the incubations, the time course of light emission was transformed into the ATPe concentration versus time using a calibration curve, with ATP stock solutions ranging from 1 to 50 µM. The results were expressed as ΔATPe (i.e., the ratio of [ATPe] before and after the addition of a given stimulus).
The increase in [ATPe] due to regulated ATP release was calculated by taking the experimentally-measured [ATPe] and subtracting the estimated [ATPe] due to hemolysis. Except where otherwise stated, the results of ATP release experiments reflected the ATP release from non-lytic origin.

[9] = tested on: human red blood cells; design: method as in PMID 30061676; conditions: cited from earlier work
[10] = displacement of 10 nM (3H) PK 11195, mean ± SEM, N = 3, read-out: IC50, TSPO ligands' affinity for RBC membranes

SMILES | hemolysis [1] [%] | t1/2 of sorbitol-induced hemolysis relative to control samples [2] | hemolysis ([1]; red blood cells (RBCs)) [%] | effect on cholesterol uptake [4] | ZnPPIX uptake increase (effect in words) [5] | IC50 [7, 10] [nM] | induction of ATP release (comparison between ligands) [8] | ligand-induced ATP release in presence of VDAC blocker Bcl-XLBH4 [8] | ligand-induced ATP release in presence of pannexin-1 inhibitors [8] | non-lytic ATP efflux from RBCs [9] | also measured
CCC(C)N(C)C(=O)c1cc2ccccc2c(-c2ccccc2Cl)n1 (stereo not drawn) [PK 11195, reference compound] | 0.6 ± 0.06 | three-fold higher |  |  |  |  |  |  |  |  | 
CN(C)C(=O)Cc1nn(-c2ccccc2)c(=O)c2c1c1ccc(Cl)cc1n2C [SSR-180,575, reference compound] |  |  | 0.7 ± 0.08 | did not alter cholesterol uptake |  |  |  |  |  |  | anti-plasmodium activity (comparison between ligands) [3]: highest anti-plasmodium activity trend
CCCN(CCC)C(=O)Cn1c(=O)n2cc(-c3ccccc3)nc2c2ccccc21 [NCS1026, N,N-dipropyl-2-(5-oxo-2-phenylimidazo[1-c]quinazolin-6(5H)-yl)acetamide] |  | three-fold higher | 0.52 ± 0.06 |  | no significant effect | 280 ± 60 |  |  |  |  | inhibition of cholesterol uptake ([4]; 1 h of incubation): 40%; inhibition of cholesterol uptake ([4]; 5 h of incubation): 20%; IC50 [6]: 10 nM
CN1C(=O)CN=C(c2ccc(Cl)cc2)c2cc(Cl)ccc21 [Ro5-4864, reference compound] | 0.68 ± 0.16 | eight-fold higher |  | did not alter cholesterol uptake |  |  | a bit lower | significantly inhibited | not affected | triggered non-lytic ATP efflux | IC50 [7]: 1500 ± 600 nM
CCN(CC)C(=O)Cn1c(=O)n2cc(-c3ccco3)nc2c2ccccc21 [NCS1018, N,N-Diethyl-2-(2-(furan-2-yl)-5-oxomidazo[1-c]quinazolin-6(5H)-yl)acetamide] |  | eight-fold higher | 0.72 ± 0.06 | did not alter cholesterol uptake | no significant effect | 590 ± 70 | most efficient in inducing ATP release | significantly inhibited | not affected | triggered non-lytic ATP efflux | 
CC(C)CCC[C@@H](C)[C@H]1CC[C@H]2[C@@H]3CCC4=CC(=NO)CC[C@]4(C)[C@H]3CC[C@]12C [TRO19622] |  |  |  |  |  |  |  |  |  | triggered non-lytic ATP efflux | 
